# Patent US11998536B2, “Decreasing expression level of proteasome subunit genes by treating a human subject with a nitroxide” (priority 2018, dated 2024)
# Columns and labels:
# [1] = system: Psma2; assay: Gene expression in Tempol-fed mice, chip-based microarray; assay type: in vivo; conditions: white adipose tissue per table title (cardiac tissue per text)
# Experimental: (§1) To assess the effects of Tempol on gene expression, Tempol was administered to experimental mice at a dose of 5 mg/g of food from 14 months to 31 months after birth. Mice receiving the same food without the addition of Tempol were used as a negative control. At the age of 31 months, the experimental animals were sacrificed and the hearts were surgically removed. The expression of a broad spectrum of genes in the cardiac tissue was assessed using chip-based microarray technology. Such chips are well known in the art and are widely used to assess gene expression.
# [2] = system: Psma6; assay: as above; assay type: in vivo; conditions: white adipose tissue per table title (cardiac tissue per text)
# Experimental: as §1
# [3] = system: Psma7; assay: as above; assay type: in vivo; conditions: white adipose tissue per table title (cardiac tissue per text)
# Experimental: as §1
# [4] = system: Psmb4; assay: as above; assay type: in vivo; conditions: white adipose tissue per table title (cardiac tissue per text)
# Experimental: as §1
# [5] = system: Psmb5; assay: as above; assay type: in vivo; conditions: white adipose tissue per table title (cardiac tissue per text)
# Experimental: as §1
# [6] = system: Psmc2; assay: as above; assay type: in vivo; conditions: white adipose tissue per table title (cardiac tissue per text)
# Experimental: as §1
# [7] = system: Psmc3; assay: as above; assay type: in vivo; conditions: white adipose tissue per table title (cardiac tissue per text)
# Experimental: as §1
# [8] = system: Psmc4; assay: as above; assay type: in vivo; conditions: white adipose tissue per table title (cardiac tissue per text)
# Experimental: as §1
# [9] = system: Psmc6; assay: as above; assay type: in vivo; conditions: white adipose tissue per table title (cardiac tissue per text)
# Experimental: as §1
# [10] = system: Psmd12; assay: as above; assay type: in vivo; conditions: white adipose tissue per table title (cardiac tissue per text)
# Experimental: as §1
# [11] = system: Psmd13; assay: as above; assay type: in vivo; conditions: white adipose tissue per table title (cardiac tissue per text)
# Experimental: as §1
# [12] = system: Psmd14; assay: as above; assay type: in vivo; conditions: white adipose tissue per table title (cardiac tissue per text)
# Experimental: as §1
# [13] = system: Psmd3; assay: as above; assay type: in vivo; conditions: white adipose tissue per table title (cardiac tissue per text)
# Experimental: as §1
# [14] = system: Psmd4; assay: as above; assay type: in vivo; conditions: white adipose tissue per table title (cardiac tissue per text)
# Experimental: as §1
# [15] = system: Psmd9; assay: as above; assay type: in vivo; conditions: white adipose tissue per table title (cardiac tissue per text)
# Experimental: as §1
# [16] = system: Psme4; assay: as above; assay type: in vivo; conditions: white adipose tissue per table title (cardiac tissue per text)
# Experimental: as §1
# [17] = system: genes associated with proteasome activity; assay: Gene expression in Tempol-fed mice, chip-based microarray (summary in text); assay type: in vivo; conditions: Tempol 5 mg/g of food from 14 to 31 months; cardiac tissue; vs mice on same food without Tempol
# Experimental: as §1
# [18] = system: β5/β5i sites (chymotrypsin-like sites) of the proteasome; conditions: cited from earlier work
# [19] = biological target: β1 (caspase-like) sites of the proteasome (Homo sapiens, UniProt P28072); conditions: relative to β5/β5i sites; cited from earlier work
# [20] = biological target: β2 sites of the proteasome (Homo sapiens, UniProt Q99436); conditions: under normal conditions; cited from earlier work
# [21] = Tempol 5 mg/g of food from 14 to 31 months, microarray
# [22] = Tempol-treated vs control mice, 5 mg/g of food from 14 to 31 months
smiles,measurement,setting,value
"CC1(C)CC(O)CC(C)(C)N1[O] [Tempol, 4-hydroxy-2,2,6,6-tetramethylpiperidine-1-oxyl]","Psma2 expression, Tempol-treated mice",[1]; [21],3123
same,Psma2 fold change,[1]; [22],−1.20
same,"Psma6 expression, Tempol-treated mice",[2]; [21],3467
same,Psma6 fold change,[2]; [22],−1.09
same,"Psma7 expression, Tempol-treated mice",[3]; [21],1513
same,Psma7 fold change,[3]; [22],−1.23
same,"Psmb4 expression, Tempol-treated mice",[4]; [21],3614
same,Psmb4 fold change,[4]; [22],−1.15
same,"Psmb5 expression, Tempol-treated mice",[5]; [21],1754
same,Psmb5 fold change,[5]; [22],−1.15
same,"Psmc2 expression, Tempol-treated mice",[6]; [21],2176
same,Psmc2 fold change,[6]; [22],−1.23
same,"Psmc3 expression, Tempol-treated mice",[7]; [21],1810
same,Psmc3 fold change,[7]; [22],−1.23
same,"Psmc4 expression, Tempol-treated mice",[8]; [21],1101
same,Psmc4 fold change,[8]; [22],−1.52
same,"Psmc6 expression, Tempol-treated mice",[9]; [21],1449
same,Psmc6 fold change,[9]; [22],−1.16
same,"Psmd12 expression, Tempol-treated mice",[10]; [21],1098
same,Psmd12 fold change,[10]; [22],−1.20
same,"Psmd13 expression, Tempol-treated mice",[11]; [21],1047
same,Psmd13 fold change,[11]; [22],−1.23
same,"Psmd14 expression, Tempol-treated mice",[12]; [21],2745
same,Psmd14 fold change,[12]; [22],−1.20
same,"Psmd3 expression, Tempol-treated mice",[13]; [21],1017
same,Psmd3 fold change,[13]; [22],−1.12
same,"Psmd4 expression, Tempol-treated mice",[14]; [21],2610
same,Psmd4 fold change,[14]; [22],−1.20
same,"Psmd9 expression, Tempol-treated mice",[15]; [21],310
same,Psmd9 fold change,[15]; [22],−1.18
same,"Psme4 expression, Tempol-treated mice",[16]; [21],1086
same,Psme4 fold change,[16]; [22],−1.16
same,Change in expression of the 16 listed proteasome genes,[17],statistically significant decrease in expression
CC(C)C[C@H](NC(=O)[C@H](Cc1ccccc1)NC(=O)c1cnccn1)B(O)O [bortezomib],Inhibition of β5/β5i sites,[18],high potency
same,"Affinity for β1 sites, lower than for β5/β5i sites",[19],approximately 10 fold
same,Targeting of β2 sites,[20],not appreciably targeted
